Measured values as given in patent US5177087A, “Cyclic amine compounds and their use” (Takeda Chemical Industries, Ltd., priority 1989, dated 1993).
Counter-ions that a name gives are not always drawn. Like-named read-outs stand apart in the source and are kept apart here.

How the values were obtained:
[1] = Antihypoxic action: survival time of mice in a decompressed desiccator; format: in vivo, Male mice (ICR/Jcl strain); settings: Mus musculus, ip, read-out: survival time of drug-treated group (mean survival time of control group = 100)
Procedure: Male mice (ICR/Jcl strain, 5-6 weeks old) were divided into two groups, i.e. a control group and a drug-treated group. A desiccator was decompressed to an internal pressure of 35 mmHg with a vacuum pump and, then, connected to two desiccators housing mice of the two groups, respectively. After an equilibrium was established in internal pressure among the desiccators, the time to the onset of respiratory arrest of each mouse in each group was measured and regarded as survival time. Then, taking the mean survival time in the control group as 100, the survival time of the drug-treated group was expressed in percentage (Table 7). The test drug was administered intraperitoneally 30 minutes before induction of hypoxia. The control group received physiological saline.

[2] = Antiedematous action on the brain: microsphere-induced cerebral edema, water, sodium and ion contents of hemisphere; format: in vivo, Male rats (Wistar/Jcl); settings: 72 hours after microsphere infusion
Excerpt: Male rats (Wistar/Jcl, 11 weeks old) underwent cervical incision under ether anesthesia and the pterygopalatine artery and external carotid artery were ligated. After blockade of the common carotid artery bloodstream, a cannula was inserted retrogradely from the external carotid artery and indwelt at the origin of the internal carotid artery. Then, a suspension of carbon microspheres (50±10 μm in diameter) in 20% dextran was infused selectively into the internal carotid artery through the indwelt cannula over a period of about 10 seconds. Seventy-two hours after infusion, the brain was removed and divided into the right and left cerebral hemispheres. Then, the water, sodium and ion contents of each hemisphere were determined. The test drug was administered intraperitoneally 30 minutes before and 5 hours after infusion of the microspheres on the day of microsphere infusion and twice a day, i.e. in the morning and in the afternoon, thereafter till the end of the experiment. 5% Gum arabic was used in the control group.

[3] = target: T1, cholinesterase (Rattus norvegicus, UniProt P37136); assay: Anti-cholinesterase action, (acetyl-[^3 H])-acetylcholine as substrate, S1 fraction of cerebral cortex homogenate; format: biochemical, male Wistar rats
T1 construct: the S1 fraction of the cerebral cortex homogenate from male Wistar rats was used as cholinesterase source; from tissue; host or cells: cerebral cortex homogenate, S1 fraction, male Wistar rats
T1 sequence (P37136 32-614): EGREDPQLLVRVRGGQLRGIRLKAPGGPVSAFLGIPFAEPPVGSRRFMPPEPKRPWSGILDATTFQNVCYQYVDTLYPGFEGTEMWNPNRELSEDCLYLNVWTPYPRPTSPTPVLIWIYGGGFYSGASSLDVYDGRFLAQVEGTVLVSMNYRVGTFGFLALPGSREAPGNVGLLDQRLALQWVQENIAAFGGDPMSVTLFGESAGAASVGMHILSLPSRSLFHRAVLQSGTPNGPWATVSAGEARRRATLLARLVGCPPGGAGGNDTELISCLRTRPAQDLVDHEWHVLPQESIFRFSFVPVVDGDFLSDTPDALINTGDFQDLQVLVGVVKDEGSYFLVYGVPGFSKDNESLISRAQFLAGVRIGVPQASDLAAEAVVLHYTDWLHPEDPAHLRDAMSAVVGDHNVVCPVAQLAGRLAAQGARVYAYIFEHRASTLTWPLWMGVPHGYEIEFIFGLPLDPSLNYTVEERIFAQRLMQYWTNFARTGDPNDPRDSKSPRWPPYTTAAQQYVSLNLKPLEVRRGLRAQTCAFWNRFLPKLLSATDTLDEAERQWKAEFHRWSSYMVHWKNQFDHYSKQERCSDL
Procedure: The anti-cholinesterase action of the compound of the present invention was investigated using (acetyl-[^3 H])-acetylcholine. Thus, the S1 fraction of the cerebral cortex homogenate from male Wistar rats was used as cholinesterase source, and (acetyl-[^3 H])-acetylcholine as the substrate and the compound of the invention as the test compound were incubated for 30 minutes and after termination of the reaction, a toluene scintillator was added. The mixture was shaken and the radioactivity of the reaction product [^3 H]-acetic acid in the toluene layer was measured with a scintillation counter to estimate the cholinesterase-antagonizing activity.
The anticholinesterase activity of the test compound was expressed as 50% inhibitory concentration (IC50) in Table 9.

[4] = Action on scopolamine-induced impairment of spontaneous alternation in a T-maze; format: in vivo, rats
Procedure: The nootropic effect of the compound of the invention (Example 59) was investigated using spontaneous alternation in rats (Murray and Fibiger, Behav Neurosci. 100, 23-32, 1986) as an indicator. Nine-week-old rats were used. Feeding was restricted so that the body weight of the rat would be reduced to about 80% of free-feeding weight. Then, training was started. Training consisted of 11 trials. In the first trial one food pellet (45 mg) was placed in each of food receptacles set at ends of two arms and the rat was allowed to select either arm freely for the food reward. In the subsequent 10 trials from the second to the eleventh trial, the diet was placed only on the arm opposite to the arm which had been selected immediately before. The selection of the arm where the diet was placed was regarded as a correct response. In each acquistion trial, the rat was first placed in a home compartment and 15 seconds later the door was opened to let the animal explore freely and select either arm. The rat was brought back to the home compartment after it had ingested the pellet in the case of a correct response or after it had reached the food receptacle in the case of an incorrect response. In the experiment, the rats which had attained the correct response rate of not less than 80% were used. Scopolamine bromide was administered intraperitoneally in a dose of 0.3 mg/kg 30 minutes before the beginning of the experiment and the test compound (Example 59) was administered orally 30 minutes before scopolamine administration. The results of the experiment are expressed in correct response rate. For the analysis of significant difference between the groups, Student's t-test (two-tailed) was used. In the first experiment, groups of 7-9 rats were used, and in the second experiment, groups of 12-14 rats were used. The results are shown in Table 10 (the results in the second experiment are shown in the parentheses).

[5] = 10 mg/kg, i.p., 30 minutes before hypoxia, 35 mmHg
[6] = 30 minutes incubation, read-out: Anticholinesterase activity IC50

O=C(c1ccc(N2CCN(Cc3ccccc3)CC2)cc1)C1CCNCC1 [Example 11-4]
response vs control in vivo at 0.1 mg/kg [1]: 116 ± 11%
response vs control in vivo at 0.5 mg/kg [1]: 148 ± 17%
response vs control in vivo at 2 mg/kg [1]: 288 ± 82%
response vs control in vivo at 10 mg/kg [1, 5]: 216 ± 53%

OC(c1ccncc1)c1ccc(N2CCCCC2)cc1 (stereo not drawn) [Example 12, 4-[(α-Hydroxy-4-piperidino)benzyl]pyridine dihydrochloride]
response vs control in vivo at 0.1 mg/kg [1]: 84 ± 4%
response vs control in vivo at 0.5 mg/kg [1]: 152 ± 19%
response vs control in vivo at 2 mg/kg [1]: 163 ± 23%
response vs control in vivo at 10 mg/kg [1, 5]: 132 ± 8%

OC(c1ccc(N2CCC(Cc3ccccc3)CC2)cc1)C1CCNCC1 (centres unmarked) [Example 14-3]
response vs control in vivo at 0.1 mg/kg [1]: 108 ± 9%
response vs control in vivo at 0.5 mg/kg [1]: 162 ± 24%
response vs control in vivo at 2 mg/kg [1]: 137 ± 11%
response vs control in vivo at 10 mg/kg [1, 5]: 398 ± 95%

OC(c1ccc(N2CCN(Cc3ccccc3)CC2)cc1)C1CCNCC1 (centres unmarked) [Example 14-4]
response vs control in vivo at 0.5 mg/kg [1]: 152 ± 28%
response vs control in vivo at 2 mg/kg [1]: 188 ± 22%
response vs control in vivo at 10 mg/kg [1, 5]: 197 ± 32%

OC(c1ccc(N2CCCCC2)cc1N1CCCCC1)C1CCNCC1 (centres unmarked) [Example 14-6]
response vs control in vivo at 0.1 mg/kg [1]: 120 ± 7%
response vs control in vivo at 0.5 mg/kg [1]: 154 ± 17%
response vs control in vivo at 2 mg/kg [1]: 143 ± 17%
response vs control in vivo at 10 mg/kg [1, 5]: 123 ± 6%
Water ([2]; 50 mg × 7, i.p., control group 80.35 ± 0.22): 79.36 ± 0.13%
Na ([2]; 50 mg × 7, i.p., control group 305 ± 19): 256 ± 5 mEq/kg
K ([2]; 50 mg × 7, i.p., control group 488 ± 11): 506 ± 5 mEq/kg

CN(C)c1ccc(CC2CCNCC2)cc1 [Example 20, 4-(4-Dimethylaminobenzyl)piperidine dihydrochloride]
response vs control in vivo at 0.5 mg/kg [1]: 99 ± 5%
response vs control in vivo at 2 mg/kg [1]: 118 ± 5%
Water ([2]; 5 mg × 7, i.p., control group 80.59 ± 0.19): 79.80 ± 0.19%
Na ([2]; 5 mg × 7, i.p., control group 306 ± 10): 268 ± 8 mEq/kg
K ([2]; 5 mg × 7, i.p., control group 488 ± 2): 499 ± 5 mEq/kg

c1cc(N2CCCCC2)ccc1CC1CCNCC1 [Example 21-1, 4-(4-piperidinobenzyl)piperidine dihydrochloride]
response vs control in vivo at 0.1 mg/kg [1]: 133 ± 11%
response vs control in vivo at 0.5 mg/kg [1]: 155 ± 21%
response vs control in vivo at 2 mg/kg [1]: 231 ± 59%
response vs control in vivo at 10 mg/kg [1]: 277 ± 55%

c1ccc(CC2CCN(c3ccc(CC4CCNCC4)cc3)CC2)cc1 [Example 21-2]
response vs control in vivo at 0.1 mg/kg [1]: 165 ± 26%
response vs control in vivo at 0.5 mg/kg [1]: 147 ± 14%
response vs control in vivo at 2 mg/kg [1]: 147 ± 8%
response vs control in vivo at 10 mg/kg [1, 5]: 280 ± 59%

O=C(CCC1CCN(Cc2ccccc2)CC1)c1ccc(N2CCCC2)cc1 [Example 59, 1-Benzyl-4-[2-(4-pyrrolidinobenzoyl)ethyl]piperidine]
IC50 ([3]; Anticholinesterase activity IC50, 30 minutes incubation): 27 nM
Mean correct response rate ± standard error ([4]; 3 mg/kg p.o. + scopolamine 0.3 mg/kg i.p., first experiment, scopolamine control 53.8 ± 4.6): 61.4 ± 7.1
ameliorative effect on correct response rate ([4]; 10 mg/kg): significant ameliorative effect
antagonism of the decrease of correct response rate by scopolamine ([4]; 3 and 10 mg/kg p.o.): dose-dependently antagonized

O=C(CCC1CCN(Cc2ccccc2)CC1)c1ccc(N2CCCCC2)cc1 [Example 60-1]
IC50 [3, 6]: 52 nM

O=C(CCC1CCN(Cc2ccccc2)CC1)c1ccc(N2CCCCCC2)cc1 [Example 60-2]
IC50 [3, 6]: 250 nM

CN(C)c1ccc(C(=O)CCC2CCN(Cc3ccccc3)CC2)cc1 [Example 60-3]
IC50 [3, 6]: 53 nM

CCNc1ccc(C(=O)CCC2CCN(Cc3ccccc3)CC2)cc1 [Example 60-4]
IC50 [3, 6]: 98 nM

O=C(CCC1CCN(Cc2ccccc2)CC1)c1ccc(N2CCOCC2)cc1 [Example 60-5]
IC50 [3, 6]: 10 nM

O=C(CCC1CCN(Cc2ccccc2)CC1)c1ccc(-n2ccnc2)cc1 [Example 60-6]
IC50 [3, 6]: 20 nM

CN1CCN(c2ccc(C(=O)CCC3CCN(Cc4ccccc4)CC3)cc2)CC1 [Example 60-7]
IC50 [3, 6]: 8.4 nM

CNc1ccc(C(=O)CCC2CCN(Cc3ccccc3)CC2)cc1 [Example 60-8]
IC50 [3, 6]: 150 nM

O=C(CCC1CCN(Cc2ccccc2)CC1)c1ccc(N2CCCC2)cc1 [Example 60-10]
IC50 [3, 6]: 40 nM

O=C(CCC1CCN(Cc2ccccc2)CC1)c1ccc(N2CCCC2)cc1 [Example 60-11]
IC50 [3, 6]: 32 nM

O=C(CCC1CCN(Cc2ccccc2)CC1)c1ccc(N2CCCC2)cc1 [Example 60-12]
IC50 [3, 6]: 28 nM

CN(C)c1ccc(C(=O)CCC2CCN(Cc3ccccc3)CC2)cc1 [Example 60-13]
IC50 [3, 6]: 48 nM

CN1CCN(c2ccc(C(=O)CCC3CCN(Cc4ccccc4)CC3)cc2)CC1 [Example 60-14]
IC50 [3, 6]: 6.8 nM

O=C(CCC1CCN(Cc2ccccc2)CC1)c1ccc(N2CCCCC2)cc1 [Example 60-15]
IC50 [3, 6]: 61 nM

O=C(CCC1CCN(Cc2ccccc2)CC1)c1ccc(N2CCNCC2)cc1 [Example 60-17]
IC50 [3, 6]: 6.1 nM

CC(=O)N1CCN(c2ccc(C(=O)CCC3CCN(Cc4ccccc4)CC3)cc2)CC1 [Example 60-19]
IC50 [3, 6]: 2.9 nM

O=C(CCC1CCN(Cc2ccccc2)CC1)c1ccc(N2CCOCC2)cc1 [Example 60-20]
IC50 [3, 6]: 15 nM

O=C(CCC1CCN(Cc2ccccc2)CC1)c1ccc(N2CCN(C(c3ccccc3)c3ccccc3)CC2)cc1 [Example 60-21]
IC50 [3, 6]: 710 nM

O=C(CCC1CCN(Cc2ccccc2)CC1)c1ccc(NCCN2CCCCC2)cc1 [Example 60-22]
IC50 [3, 6]: 17 nM

O=C(CCCC1CCN(Cc2ccccc2)CC1)c1ccc(N2CCCC2)cc1 [Example 69, 1-Benzyl-4-[3-(4-pyrrolidinobenzoyl)propyl]piperidine fumarate]
IC50 [3, 6]: 220 nM
